# Earlier results as cited in article PMC11839646, “HPK1 kinase inhibitor: a sufficient approach to target HPK1 to modulate T cell activation in cancer immunotherapy compared with degraders” (Frontiers in Immunology, 2025).
# Tested on: HPK1
# Set-up: method as in PMID 32860752, PMID 39446986, PMID 39568237
# Conditions: preclinical; cited from earlier work
compound,measurement,value
CC(C)(O)C#Cc1cccc(COc2cc(-c3cnc(C4CCN(C(=O)CCOCCOCCOCCOCCOc5cccc6c5C(=O)N(C5CCC(=O)NC5=O)C6=O)CC4)s3)cnc2N)c1 (stereo not shown) [SS47],Tumor suppression compared to the corresponding warhead,greater tumor suppression
